In PubChem BioAssay AID248 (DTP/NCI, 2004) one finds T/C data, which are given here for 21 compounds.

“And” between values parts separate entries of the source, which are not always exact repeats. Identical values can stand only once. Inconclusive results and toxic doses are left out.

In this assay the test system is L1210 leukemia ip in BDF1 mice, survival T/C. The assay is described as follows: NCI In Vivo Anticancer Drug Screen. Data for tumor model L1210 Leukemia (intraperitoneal) in B6D2F1 (BDF1) mice. The settings on record: endpoint: mean survival time, higher = longer survival. Summed up: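 Antitumor effect is assessed in tumor-bearing animals. Survival in the compound arm is compared with a vehicle-dosed control arm and expressed as their quotient.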

The mark [1] stands for this setting: dose: 25.0 mg/kg/injection, schedule: Q04DX002 (ip), vehicle: Klucel (hydroxypropylcellulose) (HPC).
Where [2] appears, read: dose: 100.0 mg/kg/injection, schedule: Q01DX001 (ip), vehicle: saline with Tween-80.
Setting [3] is: dose: 200.0 mg/kg/injection, schedule: Q01DX001 (ip), vehicle: saline with Tween-80.
Where [4] appears, read: dose: 400.0 mg/kg/injection, schedule: Q01DX001 (ip), vehicle: saline with Tween-80.
[5] abbreviates: dose: 25.0 mg/kg/injection, schedule: Q01DX009 (ip), vehicle: saline with Tween-80.
[6] abbreviates: dose: 50.0 mg/kg/injection, schedule: Q01DX009 (ip), vehicle: saline with Tween-80.
[7] abbreviates: dose: 100.0 mg/kg/injection, schedule: Q01DX009 (ip), vehicle: saline with Tween-80.
Setting [8] is: dose: 200.0 mg/kg/injection, schedule: Q01DX009 (ip), vehicle: saline with Tween-80.
The mark [9] stands for this setting: dose: 400.0 mg/kg/injection, schedule: Q01DX009 (ip), vehicle: saline with Tween-80.
Where [10] appears, read: dose: 100.0 mg/kg/injection, schedule: Q04DX002 (ip), vehicle: saline.
[11] abbreviates: dose: 200.0 mg/kg/injection, schedule: Q04DX002 (ip), vehicle: saline.
Where [12] appears, read: dose: 400.0 mg/kg/injection, schedule: Q04DX002 (ip), vehicle: saline.
Where [13] appears, read: dose: 100.0 mg/kg/injection, schedule: Q04DX003 (ip), vehicle: saline with Tween-80.
[14] abbreviates: dose: 200.0 mg/kg/injection, schedule: Q04DX003 (ip), vehicle: saline with Tween-80.

`CC([NH-])C[NH-].[Cl][Pt+2][Cl]` (stereo not drawn): the T/C by setting is: (dose: 0.31 mg/kg/injection, schedule: Q01DX009 (ip), vehicle: saline) 108 % of control; (dose: 0.62 mg/kg/injection, schedule: Q01DX009 (ip), vehicle: saline) 116 % of control and 119 % of control; (dose: 1.1 mg/kg/injection, schedule: Q01DX009 (ip), vehicle: saline) 111 % of control; (dose: 1.25 mg/kg/injection, schedule: Q01DX009 (ip), vehicle: saline) 122 % of control; (dose: 1.65 mg/kg/injection, schedule: Q01DX009 (ip), vehicle: saline) 116 % of control; (dose: 3.75 mg/kg/injection, schedule: Q01DX009 (ip), vehicle: saline) 173 % of control. Moreover, the T/C is 93 % of control and 108 % of control (dose: 5.0 mg/kg/injection, schedule: Q01DX009 (ip), vehicle: saline); 112 % of control (dose: 6.25 mg/kg/injection, schedule: Q04DX002 (ip), vehicle: Klucel (hydroxypropylcellulose) (HPC)); 112 % of control (dose: 12.5 mg/kg/injection, schedule: Q04DX002 (ip), vehicle: Klucel (hydroxypropylcellulose) (HPC)); 104 % of control under setting [1].
Regarding `O=P(C1CCCC1)(C1CCCC1)C1CCCC1`, the T/C was 100 % of control under setting [2], 94 % of control under setting [3] and 92 % of control under setting [4].
As to `O=C(Nc1csnn1)c1ccco1`, the T/C was 104 % of control (dose: 50.0 mg/kg/injection, schedule: Q01DX001 (ip), vehicle: other); 115 % of control (dose: 100.0 mg/kg/injection, schedule: Q01DX001 (ip), vehicle: other); 104 % of control (dose: 200.0 mg/kg/injection, schedule: Q01DX001 (ip), vehicle: other); 110 % of control (dose: 400.0 mg/kg/injection, schedule: Q01DX001 (ip), vehicle: other).
With `CC1C(O)CC2CC1C2(C)C` (stereo not drawn), the T/C reads like this: (dose: 50.0 mg/kg/injection, schedule: Q01DX001 (ip), vehicle: saline with Tween-80) 94 % of control; under setting [2], 93 % of control; under setting [3], 102 % of control.
`CN1CC2C3C=CC(C3)C2C1` (stereo not drawn): the T/C (dose: 75.0 mg/kg/injection, schedule: Q01DX001 (ip), vehicle: other) was 96 % of control and the T/C (dose: 150.0 mg/kg/injection, schedule: Q01DX001 (ip), vehicle: other) is 88 % of control.
Take `COC(=O)C1=C(N)OC(C)(C)C1c1ccc(Cl)cc1` (stereo not drawn): the T/C is 100 % of control (dose: 100.0 mg/kg/injection, schedule: Q01DX001 (ip), vehicle: saline); 94 % of control (dose: 200.0 mg/kg/injection, schedule: Q01DX001 (ip), vehicle: saline); 97 % of control (dose: 400.0 mg/kg/injection, schedule: Q01DX001 (ip), vehicle: saline).
As for `CCCCCCCCCCCC(=O)NC(=S)Nc1ccccc1C(=O)OC`, the T/C reads like this: under setting [5], 93 % of control; under setting [6], 93 % of control; under setting [7], 96 % of control and 92 % of control; (dose: 100.0 mg/kg/injection, schedule: Q04DX002 (ip), vehicle: saline with Tween-80) 102 % of control and 109 % of control; under setting [8], 104 % of control and 86 % of control and 90 % of control; (dose: 200.0 mg/kg/injection, schedule: Q04DX002 (ip), vehicle: saline with Tween-80) 105 % of control and 89 % of control. Besides, the T/C under setting [9] was 94 % of control and 108 % of control; the T/C (dose: 400.0 mg/kg/injection, schedule: Q04DX002 (ip), vehicle: saline with Tween-80) is 94 % of control and 88 % of control.
For the compound `CCc1ccc2c(c1)N(CC(C)CN(C)C)c1ccccc1S2` (stereo not drawn), the T/C (dose: 1.56 mg/kg/injection, schedule: Q01DX009 (ip), vehicle: saline) was 115 % of control; the T/C (dose: 3.12 mg/kg/injection, schedule: Q01DX009 (ip), vehicle: saline) is 109 % of control; the T/C (dose: 6.25 mg/kg/injection, schedule: Q01DX009 (ip), vehicle: saline) is 106 % of control; the T/C (dose: 12.5 mg/kg/injection, schedule: Q01DX009 (ip), vehicle: saline) is 102 % of control; the T/C (dose: 12.5 mg/kg/injection, schedule: Q04DX003 (ip), vehicle: saline) is 113 % of control; the T/C (dose: 25.0 mg/kg/injection, schedule: Q04DX003 (ip), vehicle: saline) is 115 % of control.
Regarding `CCC(=O)Nc1cccc(OC(=O)NCCCl)c1`, the T/C under setting [7] was 96 % of control, the T/C under setting [8] is 87 % of control and the T/C under setting [9] was 86 % of control.
As for `Cc1cc(=O)[nH]c(NCCCC(N)C(=O)O)n1` (stereo not drawn), the T/C runs as follows: under setting [10], 104 % of control; under setting [11], 101 % of control; under setting [12], 96 % of control.
Take `C=CCNC(=O)C1C2C=CC(C2)C1C(=O)O` (stereo not drawn): the T/C runs as follows: under setting [13], 98 % of control; under setting [14], 104 % of control; (dose: 400.0 mg/kg/injection, schedule: Q04DX003 (ip), vehicle: saline with Tween-80) 98 % of control.
As for `CCCCCCCCCCC(CCCCCC)C(=O)O` (stereo not drawn), the T/C runs as follows: under setting [2], 95 % of control; under setting [3], 96 % of control; under setting [4], 90 % of control.
Consider `Cc1[nH]ccc2c(C)c3nc4c5ccccc5ccc4c3cc12`, for which the T/C is 98 % of control (dose: 60.0 mg/kg/injection, schedule: Q01DX Z (ip), vehicle: carboxymethylcellulose (CMC)); 98 % of control (dose: 120.0 mg/kg/injection, schedule: Q01DX Z (ip), vehicle: carboxymethylcellulose (CMC)); 90 % of control (dose: 240.0 mg/kg/injection, schedule: Q01DX Z (ip), vehicle: carboxymethylcellulose (CMC)).
In the case of `CC1SC(N)=NC1=O` (stereo not drawn), the T/C is 94 % of control (dose: 100.0 mg/kg/injection, schedule: Q01DX009 (ip), vehicle: Klucel (hydroxypropylcellulose) (HPC)); 108 % of control (dose: 100.0 mg/kg/injection, schedule: Q04DX003 (ip), vehicle: saline); 100 % of control (dose: 200.0 mg/kg/injection, schedule: Q01DX009 (ip), vehicle: Klucel (hydroxypropylcellulose) (HPC)); 103 % of control (dose: 200.0 mg/kg/injection, schedule: Q04DX003 (ip), vehicle: saline); 100 % of control (dose: 400.0 mg/kg/injection, schedule: Q01DX009 (ip), vehicle: Klucel (hydroxypropylcellulose) (HPC)); 93 % of control (dose: 400.0 mg/kg/injection, schedule: Q04DX003 (ip), vehicle: saline).
As to `CC(=O)OC1(C)CC(C)C(O)C(C(O)CC2CC(=O)NC(=O)C2)C1` (stereo not drawn), the T/C runs as follows: (dose: 5.0 mg/kg/injection, schedule: Q01DX001 (ip), vehicle: water) 98 % of control; (dose: 10.0 mg/kg/injection, schedule: Q01DX001 (ip), vehicle: water) 107 % of control; (dose: 20.0 mg/kg/injection, schedule: Q01DX001 (ip), vehicle: water) 112 % of control.
For the compound `O=C(O)CC(C(=O)O)/C(=C\c1ccccc1)c1ccccc1` (stereo not drawn), the T/C is 94 % of control under setting [10], 113 % of control under setting [11] and 110 % of control under setting [12].
Turning to `CS(=O)(=O)CC(=O)c1ccccc1`, the T/C was 87 % of control (dose: 37.5 mg/kg/injection, schedule: Q01DX009 (ip), vehicle: saline with Tween-80); 90 % of control (dose: 75.0 mg/kg/injection, schedule: Q01DX009 (ip), vehicle: saline with Tween-80); 95 % of control under setting [13]; 87 % of control (dose: 150.0 mg/kg/injection, schedule: Q01DX009 (ip), vehicle: saline with Tween-80); 96 % of control under setting [14].
Regarding `Cc1cc(C)n2ncnc2n1`, the T/C reads like this: under setting [7], 105 % of control; under setting [8], 99 % of control.
Consider `O=C(COc1ccccc1C(=O)O)Nc1ccccc1`, for which the T/C was 114 % of control under setting [1]; 92 % of control (dose: 50.0 mg/kg/injection, schedule: Q04DX002 (ip), vehicle: Klucel (hydroxypropylcellulose) (HPC)); 96 % of control (dose: 100.0 mg/kg/injection, schedule: Q04DX002 (ip), vehicle: Klucel (hydroxypropylcellulose) (HPC)).
With `COc1cc2c(cc1O)/C(=N/O)CCCC2`, the T/C is 102 % of control under setting [6], 102 % of control under setting [7], 106 % of control under setting [8] and 104 % of control under setting [9].
As for `O=[N+]([O-])c1ccc(N=Cc2ccccc2O)cc1.O=[N+]([O-])c1ccc(N=Cc2ccccc2O)cc1.[Cu]`, the T/C (dose: 12.5 mg/kg/injection, schedule: Q01DX009 (ip), vehicle: saline with Tween-80) was 100 % of control; the T/C under setting [5] was 94 % of control; the T/C under setting [6] is 93 % of control.
